The term logD denotes lipophilicity at a set pH, counting ionised and neutral species. Low values mean a more hydrophilic compound, high ones a more lipophilic compound. What is called kinetic solubility is the concentration staying in solution when a stock, usually in DMSO, is diluted into the medium. Broadly, the Tmax is the time at which the peak concentration occurs. The term bioavailability denotes the share of a dose that reaches the circulation, judged against a reference dose that is usually intravenous.

In brackets after ≈: the same amount, converted by molar mass. Entries after “also recorded” stand apart in the source; their conditions may differ.

One data set deals with T1, human GPR84 (Homo sapiens, UniProt P04899+Q9NQS5).
T1 construct: expressed in transfected cells; host or cells: Flp-In T-REx 293 cells, doxycycline-induced; membrane preparations
T1 sequence (Q9NQS5+P04899 fused): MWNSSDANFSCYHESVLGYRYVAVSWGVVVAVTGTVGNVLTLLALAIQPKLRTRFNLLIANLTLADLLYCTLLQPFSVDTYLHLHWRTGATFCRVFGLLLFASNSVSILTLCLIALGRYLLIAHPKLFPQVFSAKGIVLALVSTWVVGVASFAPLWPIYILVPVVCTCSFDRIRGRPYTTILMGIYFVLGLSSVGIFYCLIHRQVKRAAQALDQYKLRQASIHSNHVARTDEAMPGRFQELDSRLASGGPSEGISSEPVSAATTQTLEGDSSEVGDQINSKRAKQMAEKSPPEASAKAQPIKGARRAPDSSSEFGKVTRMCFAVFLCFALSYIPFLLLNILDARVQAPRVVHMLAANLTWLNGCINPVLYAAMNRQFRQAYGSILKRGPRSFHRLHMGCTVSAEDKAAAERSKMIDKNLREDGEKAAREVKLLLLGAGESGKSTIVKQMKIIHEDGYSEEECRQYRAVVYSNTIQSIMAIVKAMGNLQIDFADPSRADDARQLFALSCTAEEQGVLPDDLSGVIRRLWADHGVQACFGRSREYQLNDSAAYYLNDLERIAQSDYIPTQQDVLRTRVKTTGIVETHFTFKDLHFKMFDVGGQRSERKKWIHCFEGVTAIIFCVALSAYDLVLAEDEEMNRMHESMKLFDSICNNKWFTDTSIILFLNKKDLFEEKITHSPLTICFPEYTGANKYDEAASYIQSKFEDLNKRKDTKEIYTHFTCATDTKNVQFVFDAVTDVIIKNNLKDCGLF
Nature of the data set: biochemical. Format: biochemical. Particulars: [35S]GTPγS assay; negative log of the IC50 in molar; mean ± SEM. (In general: GTPγS is a poorly hydrolysed GTP analogue; its binding reports G protein activation.)

Another data set concerns the target T2, human FFAR2 (Homo sapiens, UniProt O15552).
T2 construct: expressed in transfected cells; host or cells: Flp-In T-REx 293 cells, induced; membrane preparations
T2 sequence (O15552 1-330): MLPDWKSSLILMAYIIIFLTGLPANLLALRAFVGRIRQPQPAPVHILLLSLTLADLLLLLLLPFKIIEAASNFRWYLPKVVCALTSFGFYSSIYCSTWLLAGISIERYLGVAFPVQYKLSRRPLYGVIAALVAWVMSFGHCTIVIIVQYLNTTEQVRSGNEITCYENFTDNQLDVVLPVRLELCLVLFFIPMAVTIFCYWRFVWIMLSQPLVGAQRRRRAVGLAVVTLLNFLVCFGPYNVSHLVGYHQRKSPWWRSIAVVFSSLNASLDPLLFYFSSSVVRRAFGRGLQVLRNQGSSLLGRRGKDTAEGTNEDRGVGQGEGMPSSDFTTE
Kind of data set: [35S]GTPγS binding, block of C3 (propionate) at FFAR2. Particulars: tested at 10 μM. Format: biochemical.

Another data set has as its target T3, human FFAR3 (Homo sapiens, UniProt O14843).
T3 construct: expressed in transfected cells; host or cells: Flp-In T-REx 293 cells, induced; membrane preparations
T3 sequence (O14843 1-346): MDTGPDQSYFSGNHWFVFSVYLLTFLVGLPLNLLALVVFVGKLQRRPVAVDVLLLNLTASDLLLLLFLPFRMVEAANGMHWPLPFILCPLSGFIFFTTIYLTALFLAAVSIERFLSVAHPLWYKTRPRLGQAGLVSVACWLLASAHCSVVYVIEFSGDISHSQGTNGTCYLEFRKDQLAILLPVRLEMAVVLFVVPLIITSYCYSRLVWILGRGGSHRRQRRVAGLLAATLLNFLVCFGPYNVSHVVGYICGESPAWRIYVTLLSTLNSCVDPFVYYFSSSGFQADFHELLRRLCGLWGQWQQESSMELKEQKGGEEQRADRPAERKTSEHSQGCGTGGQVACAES
Kind of data set: [35S]GTPγS binding, block of C3 (propionate) at FFAR3. The conditions noted are these: tested at 10 μM. Format: biochemical.

Another data set concerns mouse GPR84. The conditions noted are these: cited from earlier work.
For data set [1], the target named is GPR84-Gαi2 fusion protein, Phe101Ala (Homo sapiens, UniProt Q9NQS5, F101A). Kind of data set: [35S]GTPγS binding, GPR84-Gαi2 fusion protein, Phe101Ala. The conditions noted are these: Phe101 to Ala, versus wild type.
GPR84-Gαi2 fusion protein, Phe101Ala, sequence (Q9NQS5 whole entry F101A, the tested form may be a part): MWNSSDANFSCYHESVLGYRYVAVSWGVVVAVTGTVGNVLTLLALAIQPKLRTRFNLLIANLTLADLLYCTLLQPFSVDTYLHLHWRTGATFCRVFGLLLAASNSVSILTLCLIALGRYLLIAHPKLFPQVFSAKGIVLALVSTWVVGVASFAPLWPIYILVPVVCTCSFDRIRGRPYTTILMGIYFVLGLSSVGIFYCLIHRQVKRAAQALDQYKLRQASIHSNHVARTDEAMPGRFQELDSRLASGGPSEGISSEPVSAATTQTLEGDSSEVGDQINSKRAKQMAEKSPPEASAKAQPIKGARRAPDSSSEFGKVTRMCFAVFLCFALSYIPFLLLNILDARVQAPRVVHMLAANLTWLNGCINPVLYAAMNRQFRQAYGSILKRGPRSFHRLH
GPR84-Gαi2 fusion protein, Phe101Ala, sequence (P04899 2-355 partner): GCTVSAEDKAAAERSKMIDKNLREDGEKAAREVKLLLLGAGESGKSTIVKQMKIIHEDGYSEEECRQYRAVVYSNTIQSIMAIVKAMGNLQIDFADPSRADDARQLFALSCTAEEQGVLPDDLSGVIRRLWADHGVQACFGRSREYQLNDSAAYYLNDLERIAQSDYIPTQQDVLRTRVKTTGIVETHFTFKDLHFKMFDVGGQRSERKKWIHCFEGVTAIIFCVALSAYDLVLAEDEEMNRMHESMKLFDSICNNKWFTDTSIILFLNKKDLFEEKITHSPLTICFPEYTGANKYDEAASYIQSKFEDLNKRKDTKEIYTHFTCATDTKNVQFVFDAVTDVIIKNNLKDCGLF
Data set [2] deals with GPR84-Gαi2 fusion protein, Phe335Ala (Homo sapiens, UniProt Q9NQS5, F335A). Nature of the data set: [35S]GTPγS binding, GPR84-Gαi2 fusion protein, Phe335Ala. Particulars: Phe335 to Ala, versus wild type.
GPR84-Gαi2 fusion protein, Phe335Ala, sequence (Q9NQS5 whole entry F335A, the tested form may be a part): as the sequence (Q9NQS5 whole entry F101A, the tested form may be a part) above, with A101F, F335A counted along it
GPR84-Gαi2 fusion protein, Phe335Ala, sequence (P04899 2-355 partner): as the sequence (P04899 2-355 partner) above
Data set [3] concerns the target GPR84-Gαi2 fusion protein, Trp360Ala (Homo sapiens, UniProt Q9NQS5, W360A). Kind of data set: [35S]GTPγS binding, GPR84-Gαi2 fusion protein, Trp360Ala. The conditions noted are these: Trp360 to Ala, versus wild type.
Data set [4] in a line: Log D7.4 (distribution coefficient). Format: physicochemical. The conditions noted are these: pH 7.4.
A further data set is described as follows: physchem. The source says: DPI = 4,5-Diphenylimidazole
(2 pictures or pasted objects on this page, not shown here)

A short description of data set [5]: Mouse hepatocyte stability. Format: in vitro ADME. Particulars: hepatocytes, read-out: mouse heps t1/2.
Data set [6] can be described thus: Mouse plasma protein binding. Format: in vitro ADME. The conditions noted are these: read-out: mouse PPB.
The nature of a further data set: in vitro. The conditions noted are these: human, microsomes.
Data set [7] can be described thus: In vivo mouse PK, IV dosing. Particulars: IV (1 mg/kg), CV % in parenthesis. As to the method: (§1) Mouse pharmacokinetic studies were carried out by Xenogesis Ltd. (Nottingham, U.K.). All life phases were conducted in accordance with the local Ethics Review process.
Male C57BL/6J mice (n = 3, Charles River, U.K.) were intravenously administered with a dose of 1 mg/kg of the appropriate compound (formulation 5% v/v DMSO in 20% w/v HPCD in water). […] Plasma concentrations were determined by LC/MS/MS. LC/MS/MS analysis was performed using a Thermo TSQ Quantiva with Thermo Vanquish UPLC system on a Luna Omega C18 column. The plasma concentrations were simulated by nonparametric analysis from the plasma concentrations obtained in the PK study using Phoenix WinNonlin.

Data set [8] in a line: In vivo mouse PK, PO dosing. The protocol:
as §1
Male C57BL/6J mice (n = 3, Charles River, U.K.) were orally administered with a dose of 10 mg/kg of the appropriate compound (formulation 0.5% w/v methylcellulose in water). […] Plasma concentrations were determined by LC/MS/MS. LC/MS/MS analysis was performed using a Thermo TSQ Quantiva with Thermo Vanquish UPLC system on a Luna Omega C18 column. The plasma concentrations were simulated by nonparametric analysis from the plasma concentrations obtained in the PK study using Phoenix WinNonlin.

The mark [9] stands for this setting: pH 7.4, Kinetic Solubility, R=1, PBS pH7.4 in 2% DMSO by plate reader, replicate 1.
Setting [10] is: pH 7.4, Kinetic Solubility, R=2, PBS pH7.4 in 2% DMSO by plate reader, replicate 2.
[11] abbreviates: pH 7.4, kinetic solubility, PBS pH7.4 in 2% DMSO.
Setting [12] is: PO (10 mg/kg), CV % in parenthesis.

GPR84-Gαi2 fusion protein, Trp360Ala, sequence (Q9NQS5 whole entry W360A, the tested form may be a part): as the sequence (Q9NQS5 whole entry F101A, the tested form may be a part) above, with A101F, W360A counted along it
GPR84-Gαi2 fusion protein, Trp360Ala, sequence (P04899 2-355 partner): as the sequence (P04899 2-355 partner) above

`COc1ccc(-c2nnc(Cc3c[nH]c4ccccc34)nc2-c2ccc(OC)cc2)cc1` [Compound 1, 3-((5,6-Bis(4-methoxyphenyl)-1,2,4-triazin-3-yl)methyl)-1H-indole]: the “GTPγS (pIC50)” value at human GPR84 turned out to be 7.93 ± 0.21. For the same compound, on human FFAR2, the “block of the actions of the C3 fatty acid propionate at FFAR2” value was “no ability to block; also recorded: did not block”. For the same compound, the “block of the actions of the C3 fatty acid propionate at FFAR3” value on human FFAR3 is on record as “no ability to block; also recorded: did not block”. The “antagonism of mouse GPR84” value in the data set with mouse GPR84 is recorded as “unable to antagonize”. Besides, the “affinity to block effects of the allosteric agonist PSB-16671” value in data set [1], in data set [2] and in [3] was “substantial loss of affinity” in each case.

With `CNC(=O)c1ccc(-c2nnc(Cc3c[nH]c4cnccc34)nc2-c2ccccc2)cc1` [Compound 68, 4-(3-((1H-Pyrrolo[2,3-c]pyridin-3-yl)methyl)-5-phenyl-1,2,4-triazin-6-yl)-N-methylbenzamide], the “GTPγS (pIC50)” value on human GPR84 was found to be 7.29 ± 0.05. The logD in data set [4] came to 2.71. In addition, the kinetic solubility in the data set “physchem” (setting [9]) came out at 149 µM (≈ 62.7 µg/mL); in “physchem” (setting [10]), 143 µM (≈ 60.1 µg/mL); in “physchem” (setting [11]) it was 146 µM (≈ 61.4 µg/mL). Also, the values for the half-life (in data set [5]; in “in vitro”) were 12.5 min and 39.9 min, respectively. Besides, the fraction unbound in data set [6] was 0.038.

For `O=C(NCCO)c1ccc(-c2nnc(Cc3c[nH]c4ccccc34)nc2-c2ccccc2)cc1` [Compound 76, 4-(3-((1H-Indol-3-yl)methyl)-5-phenyl-1,2,4-triazin-6-yl)-N-(2-hydroxyethyl)benzamide], the “GTPγS (pIC50)” value at human GPR84 was determined as 7.46 ± 0.07. Moreover, the “block of the actions of the C3 fatty acid propionate at FFAR2” value on human FFAR2 is “no ability to block; also recorded: did not block”. Further, the “block of the actions of the C3 fatty acid propionate at FFAR3” value at human FFAR3 is listed as “no ability to block; also recorded: did not block”. For the same compound, the logD in data set [4] was 3.09. Besides, the kinetic solubility in the data set “physchem” (setting [9]) turned out to be 59 µM (≈ 26.5 µg/mL); in “physchem” (setting [10]), 62 µM (≈ 27.9 µg/mL); in the data set “physchem” (setting [11]) it was 61 µM (≈ 27.4 µg/mL). The half-life in data set [5] is 47.3 min; in [7], 1.22 (13.5) h; in the data set “in vitro” it was 57.2 min. Further, the fraction unbound in [6] came to 0.011. For the same compound, the AUCall is 757 (10.8) ng/mL·h in [7] and 3160 (8.82) ng/mL·h in [8] (setting [12]). In data set [7], the C0 was 1170 (29.6) ng/mL. Also, the CL in data set [7] is recorded as 22.0 (11.3) mL/min/kg. For the same compound, the Vss in [7] was 1.81 (15.2) L/kg. For the same compound, the Tmax in data set [8] (PO (10 mg/kg)) worked out at 60 min. Further, the Cmax in data set [8] (setting [12]) is recorded as 1080 (16.1) ng/mL. The bioavailability in data set [8] (male, C57BL/6J, plasma, PO (10 mg/kg) vs IV (1 mg/kg), CV % in parenthesis) worked out at 41.5%.

The values are drawn from PMC9421653 (Journal of Medicinal Chemistry, 2022).
